Laboratory results taken from patent US20170049843A1, “Hepatocyte Growth Factor Mimics as Therapeutic Agents” (WASHINGTON STATE UNIVERSITY, priority 2011, published 2017).
“Also recorded” adds a separate entry of the source. Where a SMILES comes first, the peptide text is derived from it. [ ]: non-standard residue; d: D form. dNle = CCCC[C@@H](N)C(=O)O; Ahx = NCCCCCC(=O)O

Experiments:
[1] = target: T1, HGF (Homo sapiens, UniProt P14210); assay: HGF dimerization; format: biochemical; settings: analog at 10^−10M, 30 minute incubation with heparin
T1 construct: purchased R&D Systems (Minneapolis, Minn.)
Experimental: HGF dimerization was assessed using PAGE followed by silver staining (Kawas et al., 2011). Human HGF at a concentration of 0.08 ng/μl with or without 6-AH analogs was incubated with heparin at a final concentration of 5 μg/ml. Loading buffer was then added to each sample and the mixture separated by native PAGE using gradient Criterion XT precast gels (4-12% Bis-Tris; Biorad Laboratories, Hercules, Calif.). Next the gel was silver stained for the detection of the HGF monomers and dimers. Bands were quantitated from digital images using a UVP phosphoimager (Upland, Calif.).

[2] = system: MDCK cells; assay: Inhibition of HGF-dependent scattering in MDCK cells; format: cell-based, canine; settings: HGF 20 ng/ml, 48 h
Experimental: (§1) MDCK cells were grown to 100% confluency on the coverslips in six-well plates and washed twice with PBS. The confluent coverslips were then aseptically transferred to new six well plates containing 900 μl serum free DMEM. Norleual, Hinge peptide, and/or HGF (20 ng/ml) were added to appropriate wells. Control wells received PBS vehicle. Plates were incubated at 37° C. with 5% CO2 for 48 hours. Media was removed and cells were fixed with methanol. Cells were stained with Diff-Quik Wright-Giemsa (Dade-Behring, Newark, Del.) and digital images were taken. Coverslips were removed with forceps and more digital images were captured. Pixel quantification of images was achieved using Image J and statistics were performed using Prism 5 and InStat v.3.05.
as §1, with “h.” for “hours.”, “v.3.05 (GraphPad; San Diego, Calif.).” for “v.3.05.”

[3] = system: MDCK cells; assay: HGF-dependent MDCK cell proliferation (MTT); format: cell-based, canine; settings: 10^−10 M, 4 days, HGF 10 ng/ml
Experimental: 5000 MDCK cells were seeded into the wells of a 96 well plates in 10% FBS DMEM. To induce cellular quiescence, the cells were serum deprived for 24 h prior to initiating the treatments. Following serum starvation, 10 ng/ml HGF alone and with various concentrations of 6-AH analogs or PBS vehicle were added to the media. The cells were allowed to grow under these conditions for 4 days with a daily addition of 6-AH analogs. On the fourth day, 1 mg/ml of 1-(4, 5-Dimethylthiazol-2-yl) 3, 5-diphenylformazan reagent (MTT, Sigma-Aldrich) prepared in PBS was added to the cells and incubated for 4 h. Dimethyl sulfoxide diluted in a 0.01M glycine buffer was added to solubilize the cell membranes and the absorbance of reduced MTT in the buffer was quantitated at 590 nm using a plate reader (Biotek Synergy 2, Winooski, Vt.). HGF-dependent proliferation was determined by subtracting the basal proliferation (in the absence of HGF) from total proliferation rates in groups containing HGF.

[4] = target: T1, HGF; assay: HGF binding, competition with 3H-Hinge
Experimental: The binding of 6-AH analogs to HGF was assessed by competition using a soluble binding assay. 250 μl of PBS containing human HGF (1.25 ng) were incubated with ^3H-Hinge, the central dimerization domain of HGF, in the presence of varying concentrations of 6-AH analogs between 10^−13 M to 10^−7M (half-log dilutions) for 40 min at 37° C. The incubates were then spun through Bio-Gel P6 spin columns (400 μl packed volume) for 1 min to separate free and bound ^3H-Hinge and the eluent was collected. Five milliliters of scintillation fluid was added to the eluent, which contained the HGF bound ^3H-Hinge, and was then counted using scintillation counter. Total disintegrations per minute of bound ^3H-Hinge were calculated based on machine counting efficiency. The Ki values for the binding of the peptides were determined using the Prism 5. Competition binding curves were performed in triplicate.

[5] = system: B16-F10 murine melanoma cells; assay: B16-F10 melanoma lung colony formation; format: in vivo, mouse; settings: C57BL/6 mice, daily IP 10 μg/kg/day or 100 μg/kg/day, 14 days
Experimental: Six to eight month old C57BL/6 mice were injected with 400,000 B16-F10 cells in 200 μl PBS by tail vein injection and subsequently received daily intraperitoneal injections of either D-Nle-X-Cys-NH—(CH2)5—CONH2 (10 μg/kg and 100 μg/kg) or a PBS vehicle control. Two weeks later, mice were anesthetized and lungs were perfused with PBS and removed. Photos were taken and lungs were solubilized in 1% Triton x-100, 20 mM Tris, 0.15 M NaCl, 2 mM EDTA, and 0.02% sodium azide. Samples were disrupted by sonication (Mixonix, Farmingdale, N.Y.) and spun. The supernatant was transferred to a 96 well plate and melanin absorbance at 410 nm was measured using a plate reader.

[6] = system: Met; assay: Inhibition of HGF-dependent Met phosphorylation in HEK293 cells; format: cell-based, human; settings: 10 min
Experimental: HEK293 cells were seeded in 6 well tissue culture plates and grown to 95% confluency in DMEM containing 10% FBS. The cells were serum deprived for 24 h prior to the treatment to reduce the basal levels of phospho-Met. Following serum starvation, cocktails comprised of vehicle and HGF with/without 6-AH analogs were prepared and pre-incubated for 30 min at room temperature. The cocktail was then added to the cells for 10 min to stimulate the Met receptor and downstream proteins. Cells were harvested using RIPA lysis buffer (Millipore; Billerica, Mass.) fortified with phosphatase inhibitor cocktails 1 and 2 (Sigma-Aldrich; St. Louis, Mo.). The lysate was clarified by centrifugation at 15,000 n×g for 15 min, protein concentrations were determined using the BCA total protein assay (Pierce), and then appropriate volumes of the lysates were diluted with 2× reducing Laemmli buffer and heated for ten min at 95° C. Samples containing identical amounts of protein were resolved using SDS-PAGE (Criterion, BioRad Laboratories), transferred to nitrocellulose, and blocked in Tris-buffered saline (TBS) containing 5% milk for 1 h at room temperature. The phospho-Met antibody were added to the blocking buffer at a final concentration of 1:1000 and incubated at 4° C. overnight with gentle agitation. The membranes were then washed several times with water and TBS ([…]), a 1:5000 dilution of horseradish-peroxidase conjugated goat anti-rabbit antiserum was added, and the membranes further incubated for 1 h at room temperature. Proteins were visualized using the Supersignal West Pico Chemiluminescent Substrate system (Pierce, Fenton, Mo.) and molecular weights determined by comparison to protein ladders (BenchMark, Invitrogen, and Kaleidoscope, BioRad). Film images were digitized and analyzed using a UVP phosphoimager.

[7] = Microsomal metabolism, rat liver microsomes; format: in vitro ADME; settings: over 90 min, data not shown
[8] = in vivo; settings: male, Sprague-Dawley, rat, iv, 24 mg/kg
Experimental: Male Sprague-Dawley rats (250+g) were allowed food (Harlan Teklad rodent diet) and water ad libitum in our AAALAC certified animal facility. Rats were housed in temperature-controlled rooms with a 12 h light/dark cycle. The right jugular veins of the rats were catheterized with sterile polyurethane Hydrocoat™ catheters (Access Technologies, Skokie, Ill., USA) under ketamine (Fort Dodge Animal Health, Fort Dodge, Iowa, USA) and isoflurane (Vet One™, MWI, Meridian, Id., USA) anesthesia. The catheters were exteriorized through the dorsal skin. The catheters were flushed with heparinized saline before and after blood sample collection and filled with heparin-glycerol locking solution (6 mL glycerol, 3 mL saline, 0.5 mL gentamycin (100 mg/mL), 0.5 mL heparin (10,000 u/mL)) when not used for more than 8 h. The animals were allowed to recover from surgery for several days before use in any experiment, and were fasted overnight prior to the pharmacokinetic experiment. […]
Pharmacokinetic analysis was performed using data from individual rats. The mean and standard deviation (SD) were calculated for the group. Non-compartmental pharmacokinetic parameters were calculated from serum drug concentration-time profiles by use of WinNonlin® software (Pharsight, Mountain View, Calif., USA).

T1 sequence (P14210 32-728): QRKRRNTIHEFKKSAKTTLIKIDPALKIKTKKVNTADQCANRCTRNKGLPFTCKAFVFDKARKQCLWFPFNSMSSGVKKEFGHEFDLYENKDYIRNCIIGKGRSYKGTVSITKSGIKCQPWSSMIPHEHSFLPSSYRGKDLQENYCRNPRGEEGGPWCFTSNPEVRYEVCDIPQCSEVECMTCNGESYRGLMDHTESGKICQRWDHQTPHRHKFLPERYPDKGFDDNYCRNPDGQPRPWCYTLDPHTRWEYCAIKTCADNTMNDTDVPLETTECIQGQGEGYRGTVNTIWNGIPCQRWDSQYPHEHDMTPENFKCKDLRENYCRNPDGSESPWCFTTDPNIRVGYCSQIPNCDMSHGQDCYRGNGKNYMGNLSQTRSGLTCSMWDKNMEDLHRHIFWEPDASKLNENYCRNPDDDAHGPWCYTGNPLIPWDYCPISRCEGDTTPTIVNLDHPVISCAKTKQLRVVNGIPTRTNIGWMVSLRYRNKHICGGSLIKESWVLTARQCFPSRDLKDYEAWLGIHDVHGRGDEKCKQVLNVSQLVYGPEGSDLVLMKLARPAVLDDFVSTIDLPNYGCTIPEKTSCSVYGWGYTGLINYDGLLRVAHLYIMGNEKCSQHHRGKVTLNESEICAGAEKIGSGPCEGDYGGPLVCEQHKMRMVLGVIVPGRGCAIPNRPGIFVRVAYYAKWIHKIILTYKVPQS

Structure (SMILES)	inhibition of HGF dimerization [1]	inhibition of HGF dimerization ([1]; listed as Cys)	inhibition of HGF-dependent scattering in MDCK cells [2]	inhibition of HGF-dependent MDCK cell proliferation [3]	affinity for HGF (in words) [4]	pulmonary colonization by B16-F10 melanoma cells [5]	inhibition of HGF-dependent Met phosphorylation [6]	Phase I metabolism in rat liver microsomes [7]	inhibition of HGF dimerization ([1]; listed as Tyr)	C0 [8]
CCCC[C@@H](N)C(=O)N[C@@H](CS)C(=O)N[C@H](C(=O)NCCCCCC(N)=O)[C@@H](C)CC [D-Nle-Cys-Ile-NH—(CH2)5—CONH2] (H-[dNle]CI[Ahx]-NH2)	completely block HGF dimer formation	statistically different than the HGF treated group	different from the HGF alone group but not different from the control group	marked inhibitory activity	bind HGF with high affinity	suppressed pulmonary colonization; also recorded: radically prevented lung colonization; also recorded: obvious reduction in melanoma colonies	able to block Met auto-phosphorylation	–	–	–
CCCC[C@@H](N)C(=O)N[C@@H](Cc1ccc(O)cc1)C(=O)N[C@H](C(=O)NCCCCCC(N)=O)[C@@H](C)CC (H-[dNle]YI[Ahx]-NH2)	completely block HGF dimer formation	–	different from the HGF alone group but not different from the control group	marked inhibitory activity	bind HGF with high affinity	–	able to block Met auto-phosphorylation	no detectable metabolism over 90 min	statistically different than the HGF treated group	68.2 ± 32.2 µg/mL
